Laboratory results as given in patent publication US8703768B2, “Nitrogen containing heteroaryl compounds” (Hoffmann-La Roche Inc., priority 2010, dated 2014).

Molecular target: human PDE10A (Homo sapiens (Human), UniProt Q9Y233)
Assay: human PDE10A full length Scintillation Proximity Assay (SPA)
Type: biochemical
Details: 50 nM cGMP and 50 nM [3H]-cGMP, 20 minutes at room temperature; read-out: PDE10A inhibition IC50
Method in brief: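 Radiometric SPA read-out: after 20 min at room temperature with [^3H]-cGMP/cGMP substrate, zinc sulphate (18 mM) bead stop reagent added and counts read after 1 h. Non-specific signal defined without enzyme; full-length protein used.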

human PDE10A, sequence (Q9Y233 other isoform, or with tags, fused parts or gaps): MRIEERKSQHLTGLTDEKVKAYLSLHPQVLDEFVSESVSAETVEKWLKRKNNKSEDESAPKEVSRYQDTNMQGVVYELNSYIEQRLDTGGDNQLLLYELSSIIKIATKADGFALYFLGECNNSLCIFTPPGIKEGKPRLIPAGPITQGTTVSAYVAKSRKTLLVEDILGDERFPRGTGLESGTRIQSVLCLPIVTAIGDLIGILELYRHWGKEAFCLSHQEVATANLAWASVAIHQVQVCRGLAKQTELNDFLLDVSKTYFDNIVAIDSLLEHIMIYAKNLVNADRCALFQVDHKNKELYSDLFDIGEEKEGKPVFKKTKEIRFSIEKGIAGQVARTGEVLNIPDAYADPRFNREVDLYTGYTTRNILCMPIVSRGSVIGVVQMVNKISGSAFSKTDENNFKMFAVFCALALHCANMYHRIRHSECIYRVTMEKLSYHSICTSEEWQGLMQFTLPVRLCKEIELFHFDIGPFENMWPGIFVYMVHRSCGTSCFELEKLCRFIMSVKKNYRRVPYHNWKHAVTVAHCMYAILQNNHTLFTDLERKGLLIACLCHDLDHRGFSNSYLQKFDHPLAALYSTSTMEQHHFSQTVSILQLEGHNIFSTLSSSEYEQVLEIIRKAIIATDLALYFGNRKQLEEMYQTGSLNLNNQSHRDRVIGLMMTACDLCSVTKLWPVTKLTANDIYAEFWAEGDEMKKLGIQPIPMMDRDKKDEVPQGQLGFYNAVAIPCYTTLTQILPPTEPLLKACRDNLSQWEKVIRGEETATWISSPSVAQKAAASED

Row | IC50 [nM] | SMILES
1 | 1.1 | COCC(C)(C)CNC(=O)c1ccncc1NC(=O)c1nc(C2CC2)cnc1Nc1cncnc1 [Example 114, 6-Cyclopropyl-3-(pyrimidin-5-ylamino)-pyrazine-2-carboxylic acid [4-(3-methoxy-2,2-dimethyl-propylcarbamoyl)-pyridin-3-yl]-amide]
2 | 171 | CNC(=O)c1nn(C)cc1NC(=O)c1nc(C(C)O)cnc1Nc1cncnc1 (stereo not shown) [Example 115, 6-(1-Hydroxy-ethyl)-3-(pyrimidin-5-ylamino)-pyrazine-2-carboxylic acid (1-methyl-3-methylcarbamoyl-1H-pyrazol-4-yl)-amide]
3 | 4.5 | CNC(=O)c1c(NC(=O)c2nc(C3CC3)cnc2Nc2cncnc2)cnn1C [Example 116, 6-Cyclopropyl-3-(pyrimidin-5-ylamino)-pyrazine-2-carboxylic acid (1-methyl-5-methylcarbamoyl-1H-pyrazol-4-yl)-amide]
4 | 26.8 | COCCN(C)C(=O)c1ncccc1NC(=O)c1nc(C2CC2)cnc1Nc1cncnc1 [Example 117, 6-Cyclopropyl-3-(pyrimidin-5-ylamino)-pyrazine-2-carboxylic acid {2-[(2-methoxy-ethyl)-methyl-carbamoyl]-pyridin-3-yl}-amide]
5 | 89.7 | COCCN(C)C(=O)c1ncncc1NC(=O)c1nc(C2CC2)cnc1Nc1cncnc1 [Example 118, 5-{[6-Cyclopropyl-3-(pyrimidin-5-ylamino)-pyrazine-2-carbonyl]-amino}-pyrimidine-4-carboxylic acid (2-methoxy-ethyl)-methyl-amide]
6 | 4.5 | Cn1ncc(NC(=O)c2nc(C3CC3)cnc2Nc2cncnc2)c1C(=O)NCC(C)(C)O [Example 119, 6-Cyclopropyl-3-(pyrimidin-5-ylamino)-pyrazine-2-carboxylic acid [5-(2-hydroxy-2-methyl-propylcarbamoyl)-1-methyl-1H-pyrazol-4-yl]-amide]
7 | 0.4 | CC(C)(O)CNC(=O)c1cnccc1NC(=O)c1nc(C2CC2)cnc1Nc1cncnc1 [Example 120, 6-Cyclopropyl-3-(pyrimidin-5-ylamino)-pyrazine-2-carboxylic acid [3-(2-hydroxy-2-methyl-propylcarbamoyl)-pyridin-4-yl]-amide]
8 | 5.8 | CC1(NC(=O)c2ccncc2NC(=O)c2nc(C3CC3)cnc2Nc2cncnc2)COC1 [Example 121, 6-Cyclopropyl-3-(pyrimidin-5-ylamino)-pyrazine-2-carboxylic acid [4-(3-methyl-oxetan-3-ylcarbamoyl)-pyridin-3-yl]-amide]
9 | 45.3 | CN(CC(C)(C)O)C(=O)c1ncncc1NC(=O)c1nc(C2CC2)cnc1Nc1cncnc1 [Example 122, 5-{[6-Cyclopropyl-3-(pyrimidin-5-ylamino)-pyrazine-2-carbonyl]-amino}-pyrimidine-4-carboxylic acid (2-hydroxy-2-methyl-propyl)-methyl-amide]
10 | 9.6 | CN(CC(C)(C)O)C(=O)c1ncccc1NC(=O)c1nc(C2CC2)cnc1Nc1cncnc1 [Example 123, 6-Cyclopropyl-3-(pyrimidin-5-ylamino)-pyrazine-2-carboxylic acid {2-[(2-hydroxy-2-methyl-propyl)-methyl-carbamoyl]-pyridin-3-yl}-amide]
11 | 2.1 | CNC(=O)c1ccncc1NC(=O)c1nc(C2CC2)cnc1Nc1cncnc1 [Example 124, 6-Cyclopropyl-3-(pyrimidin-5-ylamino)-pyrazine-2-carboxylic acid (4-methylcarbamoyl-pyridin-3-yl)-amide]
12 | 5.6 | CC(C)(CO)NC(=O)c1ccncc1NC(=O)c1nc(C2CC2)cnc1Nc1cncnc1 [Example 125, 6-Cyclopropyl-3-(pyrimidin-5-ylamino)-pyrazine-2-carboxylic acid [4-(2-hydroxy-1,1-dimethyl-ethylcarbamoyl)-pyridin-3-yl]-amide]
13 | 122 | CNC(=O)c1nn(C)cc1NC(=O)c1nc(NCCOC)ncc1Nc1cncnc1 [Example 126, 2-(2-Methoxy-ethylamino)-5-(pyrimidin-5-ylamino)-pyrimidine-4-carboxylic acid (1-methyl-3-methylcarbamoyl-1H-pyrazol-4-yl)-amide]
